Data from BigSolDB 2.1.

SMILES: COC(=O)Nc1nc2ccc(Sc3ccccc3)cc2[nH]1
- solubility (mole fraction) (in DMF, 283.15 K): 0.0397
- solubility (mole fraction) (in DMF, 288.15 K): 0.0559
- solubility (mole fraction) (in DMF, 293.15 K): 0.0731
- solubility (mole fraction) (in DMF, 298.15 K): 0.0997
- solubility (mole fraction) (in DMF, 303.15 K): 0.134
- solubility (mole fraction) (in DMF, 308.15 K): 0.175
- solubility (mole fraction) (in DMF, 313.15 K): 0.227
- solubility (mole fraction) (in DMF, 318.15 K): 0.291
- solubility (mole fraction) (in DMF, 323.15 K): 0.374
- solubility (mole fraction) (in DMF, 328.15 K): 0.47
- solubility (mole fraction) (in ethanol, 283.15 K): 0.000165
- solubility (mole fraction) (in ethanol, 288.15 K): 0.000219
- solubility (mole fraction) (in ethanol, 293.15 K): 0.000291
- solubility (mole fraction) (in ethanol, 298.15 K): 0.000378
- solubility (mole fraction) (in ethanol, 303.15 K): 0.000478
- solubility (mole fraction) (in ethanol, 308.15 K): 0.000598
- solubility (mole fraction) (in ethanol, 313.15 K): 0.000734
- solubility (mole fraction) (in ethanol, 318.15 K): 0.000918
- solubility (mole fraction) (in ethanol, 323.15 K): 0.00112
- solubility (mole fraction) (in ethanol, 328.15 K): 0.00137
- solubility (mole fraction) (in ethylene glycol, 283.15 K): 0.000127
- solubility (mole fraction) (in ethylene glycol, 288.15 K): 0.000171
- solubility (mole fraction) (in ethylene glycol, 293.15 K): 0.000232
- solubility (mole fraction) (in ethylene glycol, 298.15 K): 0.000305
- solubility (mole fraction) (in ethylene glycol, 303.15 K): 0.0004
- solubility (mole fraction) (in ethylene glycol, 308.15 K): 0.000513
- solubility (mole fraction) (in ethylene glycol, 313.15 K): 0.000648
- solubility (mole fraction) (in ethylene glycol, 318.15 K): 0.000812
- solubility (mole fraction) (in ethylene glycol, 323.15 K): 0.00101
- solubility (mole fraction) (in ethylene glycol, 328.15 K): 0.00126
- solubility (mole fraction) (in water, 283.15 K): 3.69e-06
- solubility (mole fraction) (in water, 288.15 K): 4.51e-06
- solubility (mole fraction) (in water, 293.15 K): 5.71e-06
- solubility (mole fraction) (in water, 298.15 K): 7.25e-06
- solubility (mole fraction) (in water, 303.15 K): 9.03e-06
- solubility (mole fraction) (in water, 308.15 K): 1.12e-05
- solubility (mole fraction) (in water, 313.15 K): 1.38e-05
- solubility (mole fraction) (in water, 318.15 K): 1.7e-05
- solubility (mole fraction) (in water, 323.15 K): 2.07e-05
- solubility (mole fraction) (in water, 328.15 K): 2.51e-05
